# Experimental data taken from PubChem BioAssay (NCI).
# Several values for one entry are separate records, joined by “and”; a condition that tells them apart may be missing. Identical values can stand only once.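 Dose response: 5 concentrations. Exposure: 48 h. Format: 96-well plates. Endpoint: linear interpolation; highest concentration if not reached. GI50 marks 50% less growth. TGI marks complete inhibition of growth.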
# Legend:
# Assay in all cases: growth of human tumour cells (NCI), 48 h
# RXF 393 renal = system: RXF 393 renal
# MCF7 breast = system: MCF7 breast
# HL-60(TB) leukemia = system: HL-60(TB) leukemia
# ACHN renal = system: ACHN renal
# HCT-15 colon = system: HCT-15 colon
# OVCAR-3 ovarian = system: OVCAR-3 ovarian
# SF-268 CNS = system: SF-268 CNS
# CCRF-CEM leukemia = system: CCRF-CEM leukemia
# HCT-116 colon = system: HCT-116 colon
# M14 melanoma = system: M14 melanoma
SMILES,GI50 (RXF 393 renal),TGI (RXF 393 renal),GI50 (MCF7 breast),TGI (MCF7 breast),GI50 (HL-60(TB) leukemia),TGI (HL-60(TB) leukemia),GI50 (ACHN renal),TGI (ACHN renal),GI50 (HCT-15 colon),TGI (HCT-15 colon),GI50 (OVCAR-3 ovarian),TGI (OVCAR-3 ovarian),GI50 (SF-268 CNS),TGI (SF-268 CNS),GI50 (CCRF-CEM leukemia),TGI (CCRF-CEM leukemia),GI50 (HCT-116 colon),TGI (HCT-116 colon),GI50 (M14 melanoma),TGI (M14 melanoma)
COc1cccc(C2CC(c3cc(OC)c(OC)c(OC)c3)=NN2)c1 (stereo not given),8.75 µM,34 µM,3.85 µM,26.1 µM,4.08 µM,31.7 µM,21.7 µM,53 µM,10.1 µM,23.8 µM,20.2 µM,76.3 µM,13.6 µM,81.2 µM,2.91 µM,21.7 µM,5.31 µM,19 µM,48.8 µM,> 100 µM
O=C(O)CSCc1cccc2ccccc12,–,> 100 µM,–,> 100 µM,–,> 100 µM,–,> 100 µM,–,> 100 µM,–,> 100 µM,–,> 100 µM,–,> 100 µM,–,> 100 µM,–,> 100 µM
Cc1ccc(C(=O)N(CCCN)[C@@H](c2nc3cc(Cl)ccc3c(=O)n2Cc2ccccc2)C(C)C)cc1,< 0.01 µM,–,< 0.01 µM,1.59 µM and 1.33 µM,< 0.01 µM,0.482 µM,0.798 µM,2.38 µM and 2.15 µM,0.0159 µM and < 0.01 µM,1.92 µM and 1.44 µM,< 0.01 µM,–,–,1.97 µM and 2.35 µM,< 0.01 µM,3.3 µM and 1.46 µM,< 0.01 µM,1.41 µM and 1.26 µM,< 0.01 µM,< 0.01 µM
CCCN(CCC)CCCNCc1cc(I)cc(C)c1O,9.91 µM,23.2 µM,17.6 µM,31.8 µM,13.8 µM,29.8 µM,17.1 µM,34.8 µM,15.3 µM,29.7 µM,14.8 µM,27.9 µM,15.9 µM,29.4 µM,1.28 µM,6.06 µM,7.9 µM,20.5 µM,12.8 µM,25.4 µM
C=C(Cn1c(=O)c2ccccc2c2ccccc21)c1ccc(C(=O)Nc2ccccc2N)cc1,5.21 µM,> 68.5 µM,69.8 µM,> 100 µM,0.188 µM,–,43.4 µM,> 100 µM,33.5 µM,> 100 µM,33.7 µM,> 100 µM,12.6 µM,> 100 µM,0.466 µM,4.13 µM,15.2 µM,> 100 µM,> 19.8 µM,> 100 µM
O=S(=O)(Nc1ncccn1)c1ccc(N=Nc2ccc(O)c3ncccc23)cc1,9.95 µM,29.2 µM,5.67 µM,29.4 µM,6.34 µM,32.1 µM,5.18 µM,24.4 µM,4.05 µM,22.5 µM,6.25 µM,59.4 µM,9.14 µM,87 µM,3.29 µM,24.8 µM,4.2 µM,40.4 µM,8.59 µM,26.6 µM
Cc1nc2ccc(CN(C)c3ccc(C(=O)N[C@@H](CCC(=O)O)C(=O)O)s3)cc2c(=O)[nH]1,> 21.7 µM,> 100 µM,–,> 100 µM,–,> 100 µM,–,> 100 µM,–,> 100 µM,–,> 100 µM,–,> 100 µM,0.027 µM,> 100 µM,–,> 100 µM,–,> 100 µM
Cc1nc2sccn2c1/C=C1/C(=O)Nc2ccccc21,19.7 µM,> 80.9 µM,1.02 µM,> 100 µM,2.1 µM,7.25 µM,8.29 µM,> 100 µM,2.46 µM,> 100 µM,2.36 µM,> 22.8 µM,52 µM,> 100 µM,5.01 µM,> 100 µM,3.4 µM,20.2 µM,3.71 µM,> 100 µM
O=C(Nc1ccc(Cl)cc1Cl)c1ccc(NC2=C(Cl)C(=O)N(Cc3ccccc3)C2=O)cc1,17.6 µM,38.8 µM,5.91 µM,30.6 µM,2.5 µM,9.01 µM,18.9 µM,33.7 µM,16.8 µM,> 100 µM,16.3 µM,33.5 µM,16.5 µM,36.6 µM,1.99 µM,6.84 µM,34.2 µM,> 100 µM,64.6 µM,> 100 µM
CC(=O)C1=C(O)C=C2Oc3c(C(=O)/C=C/c4cc(C(F)(F)F)cc(C(F)(F)F)c4)c(O)c(C)c(O)c3[C@]2(C)C1=O,0.673 µM,3.08 µM,0.427 µM,1.7 µM,0.401 µM,1.14 µM,0.552 µM,2.26 µM,0.462 µM,2.54 µM,0.543 µM,2.27 µM,0.736 µM,4.04 µM,0.487 µM,3.82 µM,0.401 µM,1.02 µM,0.612 µM,2.31 µM
C(=Nc1ccccc1)C1CCCC[N-]1.C(=Nc1ccccc1)C1CCCC[N-]1.[Cu+2].[O-][Cl+3]([O-])([O-])O (stereo not given),38.2 µM,> 100 µM,23.8 µM,> 100 µM,6.26 µM,31.5 µM,1.45 µM,12.3 µM,0.529 µM,9.76 µM,13 µM,20.4 µM,26.9 µM,> 89.6 µM,6.3 µM,36.6 µM,7.3 µM,28.8 µM,7.4 µM,27.9 µM
CC1[C@@H]2[C@@H](C=C3C4CCC5Cc6nc7c(nc6C[C@@]5(C)C4C[C@H](O)[C@]32CO)CC2CCC3C4=C[C@H]5O[C@@]6(O[C@@](C)(CO)C[C@@H]6O)C(C)[C@@]5(O)[C@]4(C)[C@@H](O)CC3[C@]2(C)C7)O[C@]12CCC(C)(C)O2 (stereo not given in full),< 0.000365 µM,–,–,0.505 µM,–,0.496 µM,–,–,0.0744 µM,0.81 µM and 0.626 µM,1.99 µM,> 3.65 µM,0.00304 µM,0.945 µM and 0.0972 µM,0.000474 µM,–,–,0.406 µM and 1.42 µM,–,0.0639 µM
CC(C)=CCN=C(N)N,–,> 100 µM,–,> 100 µM,–,> 100 µM,–,> 100 µM,–,> 100 µM,–,–,–,> 100 µM,–,> 100 µM,–,> 100 µM,–,–
COc1ccc(-c2[nH]ncc2-c2cc3c(c(OC)c2)OCC(=O)N3)cc1,0.392 µM,2.55 µM,0.315 µM,62.4 µM,0.352 µM,2.06 µM,0.85 µM,> 100 µM,0.457 µM,> 100 µM,0.36 µM,49 µM,0.935 µM,> 100 µM,0.398 µM,> 100 µM,0.403 µM,> 100 µM,0.384 µM,> 89.2 µM
C=C(CNC(=O)Nc1ccc(-c2ccccc2)cc1)c1ccc(C(=O)Nc2ccccc2N)cc1,23.7 µM,59 µM,> 100 µM,> 100 µM,89.7 µM,> 100 µM,> 100 µM,> 100 µM,70.4 µM,> 100 µM,> 100 µM,> 100 µM,> 100 µM,> 100 µM,7.32 µM,> 100 µM,> 100 µM,> 100 µM,90.9 µM,> 100 µM
CC(C)[C@](O)(c1ccc2cc(OC(F)F)c(OC(F)F)cc2c1)c1cn[nH]n1,15 µM and 14.4 µM,29.1 µM and 28.3 µM,–,22.4 µM and 35.9 µM,26.8 µM and 25 µM,68.5 µM and 75.7 µM,25.7 µM and 19.3 µM,93.3 µM and 54 µM,13.9 µM and 14.4 µM,31.5 µM and 31.8 µM,18.7 µM and 14 µM,36.6 µM and 29.1 µM,18.7 µM and 14.4 µM,50.3 µM and 34.6 µM,23.8 µM and 24.2 µM,59 µM and 85.1 µM,15.2 µM and 15 µM,31.3 µM and 30.2 µM,18.5 µM and 15.4 µM,42.2 µM and 32.6 µM
O=C(c1ccc2ccccc2c1O)N1CCCCC1,–,> 100 µM,–,> 100 µM,–,> 100 µM,–,> 100 µM,–,> 100 µM,–,–,–,> 100 µM,–,> 100 µM,–,> 100 µM,–,> 100 µM
Nc1ncnc2c1ncn2C1OC(COP(=O)(O)CP(=O)(O)O)C(O)C1O (stereo not given),–,> 100 µM,–,> 100 µM,–,> 100 µM,–,> 100 µM,–,> 100 µM,–,–,–,> 100 µM,–,> 100 µM,–,> 100 µM,–,> 100 µM
COC(=O)[C@@H](NC(=O)NC(=O)NC(=O)CI)C(C)C,6.35 µM,18.8 µM,3.03 µM,12.7 µM,1.7 µM,3.86 µM,1.81 µM,3.47 µM,1.66 µM,3.16 µM,2.23 µM,4.78 µM,15.1 µM,32.7 µM,–,–,12.2 µM,24.6 µM,3.34 µM,13.1 µM
N#Cc1cc(C#N)c(Cl)nc1N,–,> 10 µM,–,> 10 µM,–,> 10 µM,–,> 10 µM,–,> 10 µM,–,> 10 µM,–,> 10 µM,–,> 10 µM,–,> 10 µM,–,–
CC1=C([Se]CC(OC(=O)[C@@H](CSSC(C)(C)C)NC(=O)OC(C)(C)C)C(=O)NC(C)(C)C)C(=O)c2ccccc2C1=O (stereo not given in full),1.5 µM,2.82 µM,1.46 µM,3.12 µM,0.255 µM,1.23 µM,1.51 µM,2.84 µM,1.66 µM,3.12 µM,1.89 µM,3.3 µM,1.96 µM,3.39 µM,–,–,0.49 µM,1.7 µM,1.26 µM,2.58 µM
